Measurements taken from PubChem BioAssay (NCI).
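Values below derive from 48-hour exposures of cells grown in 96-well plates, with endpoints linearly interpolated between the two concentrations bracketing the appropriate inhibition level. GI50 marks 50% less growth. TGI denotes the concentration required for complete inhibition of growth.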

Experiments:
Test in all cases: NCI tumour cell line growth inhibition, 48 h
SF-295 CNS = tested on: SF-295 CNS
HOP-92 NSCLC = tested on: HOP-92 NSCLC
TK-10 renal = tested on: TK-10 renal
OVCAR-5 ovarian = tested on: OVCAR-5 ovarian
SNB-75 CNS = tested on: SNB-75 CNS
SK-MEL-28 melanoma = tested on: SK-MEL-28 melanoma
CAKI-1 renal = tested on: CAKI-1 renal
HT29 colon = tested on: HT29 colon
MALME-3M melanoma = tested on: MALME-3M melanoma
K-562 leukemia = tested on: K-562 leukemia
A549 NSCLC = tested on: A549 NSCLC
OVCAR-4 ovarian = tested on: OVCAR-4 ovarian
U251 CNS = tested on: U251 CNS
UACC-257 melanoma = tested on: UACC-257 melanoma
MDA-MB-231 breast = tested on: MDA-MB-231 breast
MDA-MB-435 = tested on: MDA-MB-435
NCI-H23 lung = tested on: NCI-H23 lung
SK-MEL-5 melanoma = tested on: SK-MEL-5 melanoma
PC-3 prostate = tested on: PC-3 prostate
OVCAR-3 ovarian = tested on: OVCAR-3 ovarian
SF-539 CNS = tested on: SF-539 CNS
T-47D breast = tested on: T-47D breast
A498 renal = tested on: A498 renal
CCRF-CEM leukemia = tested on: CCRF-CEM leukemia
DU-145 prostate = tested on: DU-145 prostate
SNB-19 CNS = tested on: SNB-19 CNS
HOP-62 NSCLC = tested on: HOP-62 NSCLC
NCI-H226 lung = tested on: NCI-H226 lung
SK-OV-3 ovarian = tested on: SK-OV-3 ovarian
IGROV1 ovarian = tested on: IGROV1 ovarian
RXF 393 renal = tested on: RXF 393 renal
COLO 205 colon = tested on: COLO 205 colon
UO-31 renal = tested on: UO-31 renal
SW-620 colon = tested on: SW-620 colon
UACC-62 melanoma = tested on: UACC-62 melanoma
HCT-116 colon = tested on: HCT-116 colon
NCI-H522 lung = tested on: NCI-H522 lung
MCF7 breast = tested on: MCF7 breast
MOLT-4 leukemia = tested on: MOLT-4 leukemia
NCI-H460 lung = tested on: NCI-H460 lung
HCT-15 colon = tested on: HCT-15 colon
SF-268 CNS = tested on: SF-268 CNS
HL-60(TB) leukemia = tested on: HL-60(TB) leukemia
NCI/ADR-RES ovarian = tested on: NCI/ADR-RES ovarian
KM12 colon = tested on: KM12 colon
OVCAR-8 ovarian = tested on: OVCAR-8 ovarian
HS 578T breast = tested on: HS 578T breast
EKVX NSCLC = tested on: EKVX NSCLC
LOX IMVI melanoma = tested on: LOX IMVI melanoma
SK-MEL-2 melanoma = tested on: SK-MEL-2 melanoma
SR leukemia = tested on: SR leukemia
RPMI-8226 leukemia = tested on: RPMI-8226 leukemia
ACHN renal = tested on: ACHN renal
BT-549 breast = tested on: BT-549 breast
786-0 renal = tested on: 786-0 renal
M14 melanoma = tested on: M14 melanoma
SN12C renal = tested on: SN12C renal
HCC-2998 colon = tested on: HCC-2998 colon

O=C(O)c1cc(-c2ccc(-c3ccccc3)cc2)nc2cc3ccccc3cc12
TGI (SF-295 CNS): > 100 µM | TGI (HOP-92 NSCLC): 82.2 µM | TGI (TK-10 renal): > 100 µM | TGI (OVCAR-5 ovarian): > 100 µM | TGI (SNB-75 CNS): 69.9 µM | TGI (SK-MEL-28 melanoma): > 100 µM | TGI (CAKI-1 renal): > 100 µM | TGI (HT29 colon): > 100 µM | TGI (MALME-3M melanoma): > 100 µM | TGI (K-562 leukemia): > 100 µM | TGI (A549 NSCLC): > 100 µM | TGI (OVCAR-4 ovarian): > 100 µM | TGI (U251 CNS): > 100 µM | TGI (UACC-257 melanoma): > 100 µM | TGI (MDA-MB-231 breast): > 100 µM | TGI (MDA-MB-435): > 100 µM | TGI (NCI-H23 lung): > 100 µM | TGI (SK-MEL-5 melanoma): > 100 µM | TGI (PC-3 prostate): > 100 µM | TGI (OVCAR-3 ovarian): > 100 µM | TGI (SF-539 CNS): > 100 µM | TGI (T-47D breast): > 100 µM | TGI (A498 renal): > 100 µM | TGI (CCRF-CEM leukemia): 39.8 µM | TGI (DU-145 prostate): > 100 µM | TGI (SNB-19 CNS): > 100 µM | TGI (HOP-62 NSCLC): > 100 µM | TGI (NCI-H226 lung): > 100 µM | TGI (SK-OV-3 ovarian): > 100 µM | TGI (IGROV1 ovarian): > 100 µM | TGI (RXF 393 renal): > 100 µM | TGI (COLO 205 colon): > 100 µM | TGI (UO-31 renal): > 100 µM | TGI (SW-620 colon): > 100 µM | TGI (UACC-62 melanoma): > 100 µM | TGI (HCT-116 colon): > 100 µM | TGI (NCI-H522 lung): > 100 µM | TGI (MCF7 breast): > 100 µM | TGI (MOLT-4 leukemia): > 100 µM | TGI (NCI-H460 lung): > 100 µM | TGI (HCT-15 colon): > 100 µM | TGI (SF-268 CNS): > 100 µM | TGI (HL-60(TB) leukemia): > 100 µM | TGI (NCI/ADR-RES ovarian): > 100 µM | TGI (KM12 colon): > 100 µM | TGI (OVCAR-8 ovarian): > 100 µM | TGI (HS 578T breast): > 100 µM | TGI (EKVX NSCLC): > 100 µM | TGI (LOX IMVI melanoma): > 100 µM | TGI (SK-MEL-2 melanoma): > 100 µM | TGI (SR leukemia): > 100 µM | TGI (RPMI-8226 leukemia): > 100 µM | TGI (ACHN renal): > 100 µM | TGI (BT-549 breast): > 100 µM | TGI (786-0 renal): 67.6 µM | TGI (M14 melanoma): > 100 µM | TGI (SN12C renal): > 100 µM

Oc1c(Cl)cc(Cl)c(Cl)c1Cc1c(O)c(Cl)cc(Cl)c1Cl
GI50 (SF-295 CNS): 0.34 µM | TGI (SF-295 CNS): 2.05 µM | GI50 (HOP-92 NSCLC): 0.274 µM | TGI (HOP-92 NSCLC): 0.682 µM | GI50 (TK-10 renal): 3.04 µM | TGI (TK-10 renal): 35.5 µM | GI50 (OVCAR-5 ovarian): 6.14 µM | TGI (OVCAR-5 ovarian): 19.1 µM | GI50 (SNB-75 CNS): 1.65 µM | TGI (SNB-75 CNS): 10.6 µM | GI50 (SK-MEL-28 melanoma): 2.13 µM | TGI (SK-MEL-28 melanoma): 15.9 µM | GI50 (CAKI-1 renal): 0.525 µM | TGI (CAKI-1 renal): 7.36 µM | GI50 (HT29 colon): 2.81 µM | TGI (HT29 colon): 12.4 µM | GI50 (MALME-3M melanoma): 1.66 µM | TGI (MALME-3M melanoma): 5.93 µM | GI50 (A549 NSCLC): 1.99 µM | TGI (A549 NSCLC): 12.9 µM | GI50 (OVCAR-4 ovarian): 2.52 µM | TGI (OVCAR-4 ovarian): 14 µM | GI50 (U251 CNS): 1.09 µM | TGI (U251 CNS): 12.7 µM | GI50 (UACC-257 melanoma): 2.06 µM | TGI (UACC-257 melanoma): 9.3 µM | GI50 (MDA-MB-231 breast): 1.35 µM | TGI (MDA-MB-231 breast): 5.53 µM | GI50 (MDA-MB-435): 1.93 µM | TGI (MDA-MB-435): 12.8 µM | GI50 (NCI-H23 lung): 0.593 µM | TGI (NCI-H23 lung): 12 µM | GI50 (SK-MEL-5 melanoma): 0.712 µM | TGI (SK-MEL-5 melanoma): 3.04 µM | GI50 (PC-3 prostate): 0.498 µM | TGI (PC-3 prostate): 10.6 µM | GI50 (OVCAR-3 ovarian): 1.34 µM | TGI (OVCAR-3 ovarian): 8.47 µM | GI50 (SF-539 CNS): 3.39 µM | TGI (SF-539 CNS): 18.8 µM | GI50 (T-47D breast): 2.41 µM | TGI (T-47D breast): 15 µM | GI50 (A498 renal): 0.419 µM | TGI (A498 renal): 7.12 µM | GI50 (DU-145 prostate): 4.13 µM | TGI (DU-145 prostate): 22.1 µM | GI50 (SNB-19 CNS): 0.908 µM | TGI (SNB-19 CNS): 58.9 µM | GI50 (HOP-62 NSCLC): 1.37 µM | TGI (HOP-62 NSCLC): 12.1 µM | GI50 (NCI-H226 lung): 2.46 µM | TGI (NCI-H226 lung): 13 µM | GI50 (SK-OV-3 ovarian): 2.53 µM | TGI (SK-OV-3 ovarian): 11.6 µM | GI50 (IGROV1 ovarian): 1.87 µM | TGI (IGROV1 ovarian): 23.6 µM | GI50 (RXF 393 renal): 4.04 µM | TGI (RXF 393 renal): 22.4 µM | GI50 (COLO 205 colon): 2.68 µM | TGI (COLO 205 colon): 15 µM | GI50 (UO-31 renal): 2.18 µM | TGI (UO-31 renal): 11.8 µM | GI50 (SW-620 colon): 3.06 µM | TGI (SW-620 colon): 14.4 µM | GI50 (UACC-62 melanoma): 0.335 µM | TGI (UACC-62 melanoma): 12 µM | GI50 (HCT-116 colon): 0.41 µM | TGI (HCT-116 colon): 10.2 µM | GI50 (NCI-H522 lung): 0.521 µM | TGI (NCI-H522 lung): 9.66 µM | GI50 (MCF7 breast): 1.34 µM | TGI (MCF7 breast): 13.9 µM | GI50 (MOLT-4 leukemia): 1.31 µM | TGI (MOLT-4 leukemia): 36.1 µM | GI50 (NCI-H460 lung): 0.534 µM | TGI (NCI-H460 lung): 12.5 µM | GI50 (HCT-15 colon): 0.528 µM | TGI (HCT-15 colon): 13.7 µM | GI50 (SF-268 CNS): 1.08 µM | TGI (SF-268 CNS): 17.5 µM | GI50 (HL-60(TB) leukemia): 0.678 µM | TGI (HL-60(TB) leukemia): 7.96 µM | GI50 (NCI/ADR-RES ovarian): 0.453 µM | TGI (NCI/ADR-RES ovarian): 10.8 µM | GI50 (KM12 colon): 0.953 µM | TGI (KM12 colon): 11.5 µM | GI50 (OVCAR-8 ovarian): 0.941 µM | TGI (OVCAR-8 ovarian): 16.5 µM | GI50 (HS 578T breast): 1.03 µM | TGI (HS 578T breast): 51.3 µM | GI50 (EKVX NSCLC): 0.973 µM | TGI (EKVX NSCLC): 16.7 µM | GI50 (LOX IMVI melanoma): 2.39 µM | TGI (LOX IMVI melanoma): 11.2 µM | GI50 (SK-MEL-2 melanoma): 0.497 µM | TGI (SK-MEL-2 melanoma): 3.48 µM | GI50 (SR leukemia): 1.19 µM | TGI (SR leukemia): > 100 µM | GI50 (HCC-2998 colon): 0.584 µM | TGI (HCC-2998 colon): 12.9 µM | GI50 (ACHN renal): 2.27 µM | TGI (ACHN renal): 31.3 µM | GI50 (BT-549 breast): 1.26 µM | TGI (BT-549 breast): 10.3 µM | GI50 (786-0 renal): 1.96 µM | TGI (786-0 renal): 11.8 µM | GI50 (M14 melanoma): 1.38 µM | TGI (M14 melanoma): 13.9 µM | GI50 (SN12C renal): 0.431 µM | TGI (SN12C renal): 22.2 µM
